Results reported in PMC8490515, “Neuromedin B receptor stimulation of Cav3.2 T-type Ca^2+ channels in primary sensory neurons mediates peripheral pain hypersensitivity” (Theranostics, 2021).

Key:
[1] = tested on: Nmb-induced mechanical hypersensitivity in mice; assay: Nmb-induced mechanical hypersensitivity, effect of pretreatment (Figure 7C); type: in vivo, mouse; conditions: intra-TG KT-5720 2 nmol prior to 1 nmol Nmb; 1 h; n = 8 - 10
Method: (§1) Mice were housed on a 12 h light/dark cycle, maintained in a humidity- and temperature-controlled room with water available ad libitum and were acclimated to the experimenter for 2 d before the first behavioural observations. Experimenters were blinded to the treatment or genotypes of the mice. As described previously, [31], an Orofacial Stimulation Test (Ugo Basile, Italy) was used for the measurement of hypersensitivity to the mechanical stimulation of the trigeminal area. Briefly, the mice initially underwent one week of adaptation trainings after a 12 h fasting food period. Each mouse was then placed in a cage in which there was an Orofacial Stimulation Test system. […] The contact number and total duration of time the mouse spent acquiring the reward were analyzed with the ORO software.
(§2) For experiments that several time points are needed to be checked in 24 h, von Frey test was used, as orofacial stimulation test can be checked only once a day, [32]. […] Mechanical hypersensitivity was assessed as described in previous studies, [33]. In brief, the threshold was assessed with a set of von Frey hairs (0.02-2.56 g, Stoelting) applied to the whisker pad in an ascending series of trials, with three separate von Frey stimulations applied per series. The threshold was determined when mice moved their heads away briskly and strongly from at least one of the three stimuli. […]

[2] = tested on: mechanical hypersensitivity in mice; assay: Orofacial stimulation (operant) test, total contact time; type: in vivo, mouse; conditions: 1 h after intra-TG 1 nmol Nmb
Method: as §1, §2

[3] = tested on: sustained delayed rectifier K^+ channel (IDR); assay: Sustained delayed rectifier K+ currents (IDR) in TG neurons; type: cell-based, mouse; conditions: 100 nM
Method: (§3) All the procedures performed in this study were carried out in accordance with NIH guidelines and were approved by the Institutional Animal Care and Use Committee of Soochow University. TG neurons were dissociated as previously described, [23]. Briefly, TGs were harvested from 8- to 10-week-old ICR mice of either sex, cut into small pieces and treated with 2 mg/mL collagenase D (Roche) for 20 min followed by 1.5 mg/mL trypsin (Sigma) at 37 °C for 15 min. Cells were dissociated via gentle trituration with fire-polished sterilized Pasteur pipettes and centrifuged through a 15% BSA gradient to remove debris and nonneuronal cells. TG neurons were resuspended in neurobasal A (Thermo Fisher) supplemented with B27 (Thermo Fisher) and transferred onto Matrigel-coated coverslips. Patch clamp recordings were conducted 2 to 6 h after plating. In shRNA-treated knockdown experiments, TG cells were replated onto coverslips 48 h after infection.
(§4) Standard whole-cell recordings were made at room temperature (22-23 °C) as described previously, [25]. Recording electrodes were pulled from borosilicate glass microcapillary tubes (Sutter Instruments) and had resistances from 3 to 5 MΩ when filled with internal solution. Recordings were obtained using a MultiClamp 700B amplifier (Axon Instruments). […]

Cav3.2 = assay: Western blot of Cav3.2 protein in TG cells / TGs; type: cell-based, mouse; conditions: 100 nM Nmb
[4] = tested on: mechanical hypersensitivity in mice; assay: von Frey test after intra-TG injection of Nmb; type: in vivo, mouse
Method: Mice were housed on a 12 h light/dark cycle, maintained in a humidity- and temperature-controlled room with water available ad libitum and were acclimated to the experimenter for 2 d before the first behavioural observations. Experimenters were blinded to the treatment or genotypes of the mice. As described previously, [31], an Orofacial Stimulation Test (Ugo Basile, Italy) was used for the measurement of hypersensitivity to the mechanical stimulation of the trigeminal area. Briefly, the mice initially underwent one week of adaptation trainings after a 12 h fasting food period. Each mouse was then placed in a cage in which there was an Orofacial Stimulation Test system. After the mouse was given 10 min to familiarize itself with its environment, the drinking window was opened and the testing mouse was subsequently timed for 10 min to allow drinking the milk. The contact number and total duration of time the mouse spent acquiring the reward were analyzed with the ORO software.
For experiments that several time points are needed to be checked in 24 h, von Frey test was used, as orofacial stimulation test can be checked only once a day, [32]. For the von Frey test, the mice were placed in metal mesh boxes and allowed 30 min for habituation before examination. Mechanical hypersensitivity was assessed as described in previous studies, [33]. In brief, the threshold was assessed with a set of von Frey hairs (0.02-2.56 g, Stoelting) applied to the whisker pad in an ascending series of trials, with three separate von Frey stimulations applied per series. The threshold was determined when mice moved their heads away briskly and strongly from at least one of the three stimuli. Dixon's up-down method was used to determine the 50% probability of escape threshold. For thermal test, a heat stimulus was applied to the maxillary whisker pad skin by radiant heat (IITC Life Science). Heat sensitivity was expressed as head-withdrawal latency (HWL). The radiant heat intensity was adjusted so that basal HWL is between 10-15 s, with a cut-off of 18 s to prevent tissue damage. Chronic inflammatory pain was induced by subcutaneous injection of 20 μL of complete Freund's adjuvant (CFA) into the left side of the buccal pad. The drugs (Nmb, BIM23042, Z941, or TTA-P2) were applied through a percutaneous approach by injecting the TG with a 30 G needle inserted through the infraorbital foramen, infraorbital canal and foramen rotundum. The tip of the needle terminated at the medial part of the TG, and a volume of 5 μL reagent was slowly delivered, [34]. Mice received intra-TG injection of 5'-cholesteryl-modified and 6-FAM-modified Cav3.2 siRNA (Cav3.2-siRNA, 5 μg) or a scrambled negative control siRNA (NC-siRNA) (RiboBio, Guangzhou) 2 d after the CFA injection. siRNA was mixed with polyethyleneimine (PEI, Fermentas Inc.) for 10 min before being delivered. PEI was used as a delivery vehicle to prevent degradation and enhance cell membrane penetration of siRNAs, [36].

[5] = tested on: voltage-gated Na^+ channels (Nav); assay: Whole-cell voltage-gated Na+ channel currents in TG neurons; type: cell-based, mouse; conditions: 100 nM
Method: as §3, §4

[6] = tested on: high-voltage activated (HVA) Ca^2+ channels, L-type; assay: HVA / L-type Ca2+ channel currents in TG neurons; type: cell-based, mouse
Method: as §3, §4

Row | Molecule | effect on Nmb-induced mechanical hypersensitivity [1] | total contact time [2] | decrease of IDR [3] [%] | Cav3.2 protein expression in TG cells (Cav3.2) | acute mechanical hypersensitivity ([4]; intra-TG 0.1 nmol) | acute mechanical hypersensitivity ([4]; intra-TG 1 nmol or 5 nmol, n = 6 - 8 mice per group) | mechanical hypersensitivity, 5 nmol vs 1 nmol ([4]; intra-TG 5 nmol) | onset of mechanical hypersensitivity ([4]; intra-TG 5 nmol) [h] | recovery from mechanical hypersensitivity ([4]; intra-TG 5 nmol) [h] | time at which mechanical hypersensitivity was maintained ([4]; intra-TG 5 nmol) [h] | effect on whole-cell Nav currents [5] | decrease of L-type channel currents ([6]; 100 nM) [%] | decrease of remaining HVA Ca2+ channel currents ([6]; 100 nM Nmb with 5 μM nifedipine) [%]
1 | CCCCCCOC(=O)[C@]1(O)C[C@@H]2O[C@@]1(C)n1c3ccccc3c3c4c(c5c6ccccc6n2c5c31)C(=O)NC4 [KT-5720] | abolished |  |  |  |  |  |  |  |  |  |  |  | 
2 | Neuromedin B [Nmb] |  | significantly reduced | 1.9 ± 1.6 | did not affect the Cav3.2 protein expression | no such effects | significantly induced profound hypersensitivity to acute mechanical pain | stronger effect than that of 1 nmol | 1 | 6 | 3 | did not affect | 19.6 ± 2.2 | 1.3 ± 0.6
